Source: patent US7691849B2, “Carboxamidine derivatives and their use in the treatment of vascular diseases” (CytRx Corporation, priority 2002, dated 2010)

Assays:
[1] = system: thoracic aorta of SH rats; assay: Morphological testing of the thoracic aortas with electron microscopy; type: in vivo, rat; set-up: key: 1 was used to refer to cases where no regeneration was observable; 2 refers to weak; 3 to average; 4 to good; 5 to strong regeneration; conditions: SH rats treated one month, scale of 1 to 5, electron microscopy of thoracic aorta
Procedure: (§1) Three-month-old, genetically hypertonic (SH) Wistar Okamoto rats were treated for one month with various test compounds. Thereafter the functional and morphological tests were performed.
Morphological Testing of the Thoracic Aortas with Electron Microscopy
The test was performed according to the procedure known from the literature (Br. J. of Pharmacol., 1995; 115, 415-420). 1 mm^2 pieces of the aorta wall was cut out of the thoracic aorta of the rats, and were then fixed with 2.5% glutaraldehyde at room temperature for 2 hours. This was followed by a post-fixation with 1% osmium tetroxide for 1 hour. Afterwards, the tissue pieces were dehydrated with ethanol, and embedded in Durcupan ACM. The samples were evaluated qualitatively based on the images recorded on a Hitachi 7100 electron microscope.
On the scale, 1 was used to refer to cases where no regeneration was observable, 2 refers to weak, 3 to average, 4 to good, and 5 to strong regeneration.

[2] = system: thoracic aorta of SH rats; assay: Vaso-relaxing effect on the thoracic aorta of SH rats treated for one month (in vitro testing of aorta rings); type: in vivo, rat; conditions: aorta rings contracted with 10^-6 M methoxamine
Procedure: In the following, we give the results of the test of blood vessel relaxing effect, performed in vitro on rat vessels, and also the morpholocial results of the thoracic aorta.
as §1
The Vaso-relaxing Effect of the Compounds of the Invention on the Thoracic Aorta of SH Rats (in Vitro Testing)
The test was performed by the method known from the literature [Japan J. Pharmacol., 59, 339-347 (1992)]. The SH rats were anesthetized with Nembutal (40 mg/kg, i. p.), then the thoracic aorta was removed and placed in oxygenized (95% O2+5% CO2) Krebs-Henseleit solution. The composition of the solution (mM): NaCl 118, KCl 4,7, CaCl2 2,52, MgSO4 1,64, NaHCO3 24,88, KH2PO4 1,18, glucose 5,5. The 3-mm-long aorta rings were suspended in a 20 ml organ bath of 37° C. The resting tension was 1 g, which was maintained throughout the equilibration. During the 1 hour equilibration, the medium was changed in every 20 minutes. The vessels were contracted with 10^−6 M methoxamine (approx. 80% of maximal contraction). After reaching the maximal contraction, we tested the vasodilation resulting as the effect of the acetylcholine (Ach) (10^−6-10^−4 M), which informed us about the condition of the endothelium of the vessel wall. The contraction force was measured by an isometric strain gauge (SG-01D, Experimentia Ltd), and was registered on an OH-850 polygraph (Radelkis). At this time again, 5,6-dihydro-5-(1-piperidinyi)-methyl-3-(3-pyridyl)-4H-1,2,4-oxadiazine as described in WO 98/06400 was used as a reference compound.

[3] = system: human umbilical vein endothelial cells (HUVEC); assay: Wounding migration assay in endothelial cell culture; type: cell-based; conditions: wounded HUVEC monolayer, 24 hours after wounding, active agent 10^-6 M
Source text: The following compounds of the Invention are especially preferable: • 1. N-[3-(1-piperidinyl)propoxy]-pyridin-1-oxide-3-carboxamidine • 2. N-[3-(1-piperidinyl)propoxy]-pyridin-1-oxide-3-carboximidoyl chloride • 3. N-[2-hydroxy-3-(1-piperidinyl)propoxy]-N′-n-butyl-pyridin-1-oxide-4-carboxamidine • 4. N-[3-(1-oxido-1-piperidinyl)propoxy]-3-nitro-benzimidoyl-chloride dihydrate • 5. 2-chloro-N-[3-(4-oxido-4-morpholinyl)propoxy]-benzimidoyl chloride • 6. (R,S)-5,6-dihydro-5-[(1-piperidinyl)methyl]-3-(1-oxido-3-pyridyl)-4H-1,2,4-oxadiazine • 7. 5,6-dihydro-5-[(4-benzyl-1-piperidinyl)methyl]-3-(3-pyridyl)-4H-1,2,4-oxadiazine • 8. (R) or (S)-5,6-dihydro-5-[(2-oxo-1-piperidinyl)methyl]-3-(3-pyridyl)-4H-1,2,4-oxadiazine • 9. (+)-5,6-dihydro-5-[(1-piperidlnyl)methyl]-3-(1-oxido-3-pyridyl)4H-1,2,4-oxadiazine • 10. (R) or (S)-5,6-dihydro-5-[(1-oxido-1-piperidinyl)methyl]-3-(1-oxido-3-pyridyl)-4H-1,2,4-oxadiazine • 11. 5.6-dihydro-5-[(4-hydroxy-1-piperidinyl)methyl]-3-(3-pyridyl)-4H-1,2,4-oxadiazine • 12. N-[2-chloro-3-(1-piperidinly)propoxyl]-benzimidoyl chloride hydrochloride • 13. N-[2-hydroxy-3-(1-piperidinyl)propoxy]-pyridin-1-oxide-3-carboxamide • The biological effects of the compounds of the invention were tested by the following experiments: • Wounding migration assay in endothelial cell culture
The effect of the compounds of the invention on the wounded monolayers of human umbilical vein endothelial cells (HUVEC) were studied in a cell culture system (in vitro). After reaching confluence, the HUVEC cells were wounded according to the method of Yamamura et al (J. Surgical Res. 63, 349-354, 1996). The number of migrated cells were registered using computerized image analysis 24 hours after wounding in the absence and presence of the active agents under testing in a concentration of 10^−6 M. The active ingredient described in publication no. WO 98/06400, namely 5,6-dihydro-5-(1-piperidinyl)-methyl-3-(3-pyridyl)-4H-1,2,4-oxadiazine was used as reference compound.

## Cl.ClC(=NOCC(Cl)CN1CCCCC1)c1ccccc1 (stereo not shown) [Compound 12, N-[2-chloro-3-(1-piperidinly)propoxyl]-benzimidoyl chloride hydrochloride]
[1]; 20 mg/kg p.o.
  Degree of regeneration: 3
[2]; Ach 10^-4 M, 20 mg/kg
  vessel relaxing effect (vasodilation by acetylcholine): 80.4
[2]; Ach 10^-5 M, 20 mg/kg
  vessel relaxing effect (vasodilation by acetylcholine): 83.5
[2]; Ach 10^-6 M, 20 mg/kg
  vessel relaxing effect (vasodilation by acetylcholine): 82.3
[3]
  number of migrated cells: 60 cell/mm^2

## OC1CCN(CC2CON=C(c3cccnc3)N2)CC1 (stereo not shown) [Compound 11, 5.6-dihydro-5-[(4-hydroxy-1-piperidinyl)methyl]-3-(3-pyridyl)-4H-1,2,4-oxadiazine]
[1]; 10 mg/kg p.o.
  Degree of regeneration: 4
[2]; Ach 10^-4 M, 10 mg/kg
  vessel relaxing effect (vasodilation by acetylcholine): 86.0
[2]; Ach 10^-5 M, 10 mg/kg
  vessel relaxing effect (vasodilation by acetylcholine): 85.1
[2]; Ach 10^-6 M, 10 mg/kg
  vessel relaxing effect (vasodilation by acetylcholine): 79.7
[3]
  number of migrated cells: 51 cell/mm^2

## c1cncc(C2=NOCC(CN3CCCCC3)N2)c1 (stereo not shown) [Reference, 5,6-dihydro-5-(1-piperidinyl)-methyl-3-(3-pyridyl)-4H-1,2,4-oxadiazine, reference compound]
[2]; Ach 10^-4 M, 20 mg/kg
  vessel relaxing effect (vasodilation by acetylcholine): 81.7
[2]; Ach 10^-5 M, 20 mg/kg
  vessel relaxing effect (vasodilation by acetylcholine): 80.2
[2]; Ach 10^-6 M, 20 mg/kg
  vessel relaxing effect (vasodilation by acetylcholine): 77.4
[3]
  number of migrated cells: 30 cell/mm^2

## O=C1CCCCN1CC1CON=C(c2cccnc2)N1 (single isomer, unassigned) [Compound 8, (R) or (S)-5,6-dihydro-5-[(2-oxo-1-piperidinyl)methyl]-3-(3-pyridyl)-4H-1,2,4-oxadiazine]
[1]; 5 mg/kg p.o.
  Degree of regeneration: 5
[2]; Ach 10^-4 M, 20 mg/kg
  vessel relaxing effect (vasodilation by acetylcholine): 89.2
[2]; Ach 10^-5 M, 20 mg/kg
  vessel relaxing effect (vasodilation by acetylcholine): 88.0
[2]; Ach 10^-6 M, 20 mg/kg
  vessel relaxing effect (vasodilation by acetylcholine): 80.3
[3]
  number of migrated cells: 48 cell/mm^2

## O=C(NOCC(O)CN1CCCCC1)c1ccc[n+]([O-])c1 (stereo not shown) [Compound 13, N-[2-hydroxy-3-(1-piperidinyl)propoxy]-pyridin-1-oxide-3-carboxamide]
[1]; 20 mg/kg p.o.
  Degree of regeneration: 4
[2]; Ach 10^-4 M, dose not given
  vessel relaxing effect (vasodilation by acetylcholine): 95.2
[2]; Ach 10^-5 M, dose not given
  vessel relaxing effect (vasodilation by acetylcholine): 90.3
[2]; Ach 10^-6 M, dose not given
  vessel relaxing effect (vasodilation by acetylcholine): 88.4
[3]
  number of migrated cells: 54 cell/mm^2

## O.O.O=[N+]([O-])c1cccc(C(Cl)=NOCCC[N+]2([O-])CCCCC2)c1 [Compound 4, N-[3-(1-oxido-1-piperidinyl)propoxy]-3-nitro-benzimidoyl-chloride dihydrate]
[1]; 20 mg/kg p.o.
  Degree of regeneration: 5
[2]; Ach 10^-4 M, 5 mg/kg
  vessel relaxing effect (vasodilation by acetylcholine): 88.1
[2]; Ach 10^-5 M, 5 mg/kg
  vessel relaxing effect (vasodilation by acetylcholine): 84.9
[2]; Ach 10^-6 M, 5 mg/kg
  vessel relaxing effect (vasodilation by acetylcholine): 82.5
[3]
  number of migrated cells: 45 cell/mm^2

## [O-][n+]1cccc(C2=NOCC(CN3CCCCC3)N2)c1 (single isomer, unassigned; (+)) [Compound 9, (+)-5,6-dihydro-5-[(1-piperidinyl)methyl]-3-(1-oxido-3-pyridyl)-4H-1,2,4-oxadiazine]
[1]; 5 mg/kg p.o.
  Degree of regeneration: 5
[2]; Ach 10^-4 M, 5 mg/kg
  vessel relaxing effect (vasodilation by acetylcholine): 93.2
[2]; Ach 10^-5 M, 5 mg/kg
  vessel relaxing effect (vasodilation by acetylcholine): 87.9
[2]; Ach 10^-6 M, 5 mg/kg
  vessel relaxing effect (vasodilation by acetylcholine): 87.0
[3]
  number of migrated cells: 52 cell/mm^2
